# Experiment: Mouse PK Assays
# Format: in vivo
# Parameters: PK-Mouse: PO AUC-last/dose: unit not given here
# Settings: fed
# [1] = PO 10 mg/kg, 30% SBE-beta-cyclodextrin
# [2] = PO 50 mg/kg, 20% DMSO/60% PEG400/20% Water
# [3] = PO 100 mg/kg, 20% DMSO/60% PEG400/20% H2O
# [4] = PO 10 mg/kg, 20% DMSO/60% PEG400/20% Water
PK-Mouse: F % Calcd [1],PK-Mouse: PO AUC-last/dose [1],PK-Mouse: F % Calcd [2],PK-Mouse: PO AUC-last/dose [2],PK-Mouse: F % Calcd [3],PK-Mouse: PO AUC-last/dose [3],PK-Mouse: F % Calcd [4],PK-Mouse: PO AUC-last/dose [4],Compound
110%,390,280%,960,220%,760,–,–,"Cc1cc(C(C)Nc2ccccc2C(=O)O)c2oc(N3CCC(C)(C)CC3)cc(=O)c2c1 (single isomer, unassigned) [Example 366, 2-[1-[2-(4,4-Dimethyl-1-piperidyl)-6-methyl-4-oxo-chromen-8-yl]ethylamino]benzoic acid]"
–,–,33%,700,–,–,86%,1800,"Cc1cc(C(C)Nc2ccccc2C(=O)O)c2oc(N3Cc4ccccc4C3)cc(=O)c2c1 (single isomer, unassigned) [Example 363, 2-[1-(2-Isoindolin-2-yl-6-methyl-4-oxo-chromen-8-yl)ethylamino]benzoic acid]"

# — patent US20230286960A1, “ALLOSTERIC CHROMENONE INHIBITORS OF PHOSPHOINOSITIDE 3-KINASE (PI3K) FOR THE TREATMENT OF DISEASE” (Petra Pharma Corporation, priority 2020, published 2023)
